Data from patent publication US7858621B2 (Amorepacific Corporation, priority 2006, dated 2010).

Biological target: T1, vanilloid receptor (Rattus norvegicus, UniProt O35433)
T1 construct: DRG nerve cells from the primary culture of 2 days were equilibrated; endogenous in cells; host or cells: primary culture of dorsal root ganglion neurons from neonatal SD rats
Assay: 45Ca influx test in cultured neonatal rat DRG neurons, inhibition of capsaicin response
Format: cell-based
Conditions: neonatal rat DRG neurons, capsaicin 0.5 μM, 45Ca influx; read-out: Antagonist Calcium Uptake Test (IC50)
In short: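 45Ca influx measured by scintillation counting of SDS-eluted neurons after 10 min at room temperature with test compound, 0.5 μM capsaicin (final) and 10 μCi/ml 45Ca in Ca/Mg-free HEPES-HBSS pH 7.4. Cells: primary DRG neurons from newborn SD rats, cultured 2 days with NGF and Ara-C.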

T1 sequence (O35433 whole entry): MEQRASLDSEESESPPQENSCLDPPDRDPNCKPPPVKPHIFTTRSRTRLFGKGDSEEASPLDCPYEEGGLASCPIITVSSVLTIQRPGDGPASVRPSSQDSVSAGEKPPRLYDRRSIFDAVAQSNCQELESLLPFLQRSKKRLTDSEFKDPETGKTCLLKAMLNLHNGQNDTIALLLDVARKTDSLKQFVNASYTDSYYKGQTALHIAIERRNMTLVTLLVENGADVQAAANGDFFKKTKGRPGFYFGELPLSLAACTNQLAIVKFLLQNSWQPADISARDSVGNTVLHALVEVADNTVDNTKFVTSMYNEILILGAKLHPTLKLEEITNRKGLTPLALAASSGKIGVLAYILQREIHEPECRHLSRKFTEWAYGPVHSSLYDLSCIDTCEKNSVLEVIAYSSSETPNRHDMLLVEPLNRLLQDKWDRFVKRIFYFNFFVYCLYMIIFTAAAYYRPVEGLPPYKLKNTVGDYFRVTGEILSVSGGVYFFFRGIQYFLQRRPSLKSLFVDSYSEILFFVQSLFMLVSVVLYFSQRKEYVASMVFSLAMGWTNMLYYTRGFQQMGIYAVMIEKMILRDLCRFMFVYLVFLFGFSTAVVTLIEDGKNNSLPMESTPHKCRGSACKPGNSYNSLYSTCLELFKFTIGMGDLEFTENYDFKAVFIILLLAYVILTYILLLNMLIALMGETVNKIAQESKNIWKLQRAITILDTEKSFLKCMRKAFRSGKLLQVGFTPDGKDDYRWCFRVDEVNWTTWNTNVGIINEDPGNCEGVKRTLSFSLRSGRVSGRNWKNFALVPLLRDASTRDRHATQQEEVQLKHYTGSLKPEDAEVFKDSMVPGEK

| IC50 [nM] | SMILES |
| --- | --- |
| 220 | CC(C)Cc1nc(C(F)(F)F)ccc1/C=C/C(=O)NCc1ccc(NS(C)(=O)=O)c(F)c1 [Example 147, N-(3-Fluoro-4-methanesulfonylamino-benzyl)-3-(2-isobutyl-6-trifluoromethyl-pyridin-3-yl)-acrylamide] |
| 780 | C#Cc1cc(CNC(=O)/C=C/c2ccc(C(F)(F)F)nc2CCCOC)cc(F)c1NS(C)(=O)=O [Example 155, N-(3-Ethynyl-5-fluoro-4-methanesulfonylamino-benzyl)-3-[2-(3-methoxy-propyl)-6-trifluoromethyl-pyridin-3-yl]-acrylamide] |
| 200 | CCCCNc1nc(C(F)(F)F)ccc1/C=C/C(=O)N[C@@H](C)c1cc(F)c(NS(C)(=O)=O)c(F)c1 [Example 240, (S)-3-(2-Butylamino-6-trifluoromethyl-pyridin-3-yl)-N-[(1S)-(3,5-difluoro-4-methanesulfonylamino-phenyl)-ethyl]-acrylamide] |
| 76 | C#Cc1cc(CNC(=O)/C=C/c2ccc(C(F)(F)F)nc2NCc2ccccc2)cc(F)c1NS(C)(=O)=O [Example 196, 3-(2-Benzylamino-6-trifluoromethyl-pyridin-3-yl)-N-(3-ethynyl-5-fluoro-4-methanesulfonylamino-benzyl)-acrylamide] |
| 150 | CCCNc1nc(C(F)(F)F)ccc1/C=C/C(=O)NCc1ccc(NS(C)(=O)=O)c(Cl)c1 [Example 254, N-(3-Chloro-4-methanesulfonylamino-benzyl)-3-(2-propylamino-6-trifluoromethyl)-pyridin-3-yl-acrylamide] |
| 2100 | COc1nc(C(F)(F)F)ccc1/C=C/C(=O)NCc1ccc(NS(C)(=O)=O)c(F)c1 [Example 60, N-(3-Fluoro-4-methanesulfonylamino-benzyl)-3-(2-methoxy-6-trifluoromethyl-pyridin-3-yl)-acrylamide] |
| 1700 | C#Cc1cc(CNC(=O)/C=C/c2ccc(C(F)(F)F)nc2OCc2ccccc2)cc(F)c1NS(C)(=O)=O [Example 96, N-(3-Ethynyl-5-fluoro-4-methanesulfonylamino-benzyl)-3-(2-benzyloxy 6-trifluoromethyl-pyridin-3-yl)-acrylamide] |
| 140 | C#Cc1cc(CNC(=O)/C=C/c2ccc(C(C)(C)C)nc2Cl)cc(F)c1NS(C)(=O)=O [Example 51, 3-(6-tert-Butyl-2-chloro-pyridin-3-yl)-N-(3-ethynyl-5-fluoro-4-methanesulfonylamino-benzyl)-acrylamide] |
| 210 | C#Cc1cc(CNC(=O)/C=C/c2ccc(C(F)(F)F)nc2CC)cc(F)c1NS(C)(=O)=O [Example 150, 3-(2-Ethyl-6-trifluoromethyl-pyridin-3-yl)-N-(3-ethynyl-5-fluoro-4-methanesulfonylamino-benzyl)-acrylamide] |
| 740 | CC(C)Oc1nc(C(F)(F)F)ccc1/C=C/C(=O)NCc1ccc(NS(C)(=O)=O)c(F)c1 [Example 108, N-(3-Fluoro-4-methanesulfonylamino-benzyl)-3-(2-isopropoxy-6-trifluoromethyl-pyridin-3-yl)-acrylamide] |
| 130 | C#Cc1cc(CNC(=O)/C=C/c2cnc(C(C)(C)C)cc2C(F)(F)F)cc(F)c1NS(C)(=O)=O [Example 18, 3-(6-tert-Butyl-4-trifluoromethyl-pyridin-3-yl)-N-(3-ethynyl-5-fluoro-4-methanesulfonylamino-benzyl)-acrylamide] |
| 6500 | C#Cc1cc(CNC(=O)/C=C/c2ccc(C(F)(F)F)nc2N2CCN(C)CC2)cc(F)c1NS(C)(=O)=O [Example 64, N-(3-Ethynyl-5-fluoro-4-methanesulfonylamino-benzyl)-3-[2-(4-methyl-piperazin-1-yl)-6-trifluoromethyl-pyridin-3-yl]-acrylamide] |
| 340 | C#Cc1cc(CNC(=O)/C=C/c2ccc(C(F)(F)F)nc2N2CCCCC2)cc(F)c1NS(C)(=O)=O [Example 24, N-(3-Ethynyl-5-fluoro-4-methanesulfonylamino-benzyl)-3-(2-piperid-1-yl-6-trifluoromethyl-pyridinyl-3-yl)-acrylamide] |
| 70 | Cc1cc(CNC(=O)/C=C/c2ccc(C(F)(F)F)nc2CC(C)C)ccc1NS(C)(=O)=O [Example 174, 3-(2-Isobutyl-6-trifluoromethyl-pyridin-3-yl)-N-(4-methanesulfonylamino-3-methyl-benzyl)-acrylamide] |
| 310 | C#Cc1cc(CNC(=O)/C=C(/CCC)c2ccc(C(F)(F)F)nc2CCC)cc(F)c1NS(C)(=O)=O [Example 275] |
| 49 | C[C@@H](NC(=O)/C=C/c1ccc(C(F)(F)F)nc1CCc1ccccc1)c1cc(F)c(NS(C)(=O)=O)c(F)c1 [Example 236, (R)—N-[1-(3,5-Difluoro-4-methanesulfonylamino-phenyl)-ethyl]-3-(2-phenethyl-6-trifluoromethyl-pyridin-3-yl)-acrylamide] |
| > 1000 | C#Cc1cc(CNC(=O)/C=C/c2ccc(C(F)(F)F)nc2-c2cccc(OC)c2)cc(F)c1NS(C)(=O)=O [Example 125, N-(3-Ethynyl-5-fluoro-4-methanesulfonylamino-benzyl)-3-[2-(3-methoxy-phenyl)-6-trifluoromethyl-pyridin-3-yl]-acrylamide] |
| 2000 | CCCS(=O)(=O)c1nc(C(F)(F)F)ccc1C=CC(=O)NCc1ccc(NS(C)(=O)=O)c(C)c1 [Example 216, N-(4-Methanesulfonylamino-3-methyl-benzyl)-3-[2-(propane-1-sulfonyl)-6-trifluoromethyl-pyridin-3-yl]-acrylamide] |
| 130 | CCNc1nc(C(F)(F)F)ccc1/C=C/C(=O)NCc1cc(F)c(NS(C)(=O)=O)cc1F [Example 255, N-(2,5-Difluoro-4-methanesulfonylamino-benzyl)-3-(2-ethylamino-6-trifluoromethyl)-pyridin-3-yl-acrylamide] |
| 240 | C#Cc1cc(CNC(=O)/C=C(\CCC)c2ccc(C(F)(F)F)nc2CCC)cc(F)c1NS(C)(=O)=O [Example 276] |
| 54 | CCCCCc1nc(C(F)(F)F)ccc1/C=C/C(=O)NCc1ccc(NS(C)(=O)=O)c(C)c1 [Example 198, N-(4-Methanesulfonylamino-3-methyl-benzyl)-3-(2-pentyl-6-trifluoromethyl)-pyridin-3-yl-acrylamide] |
| 1400 | CS(=O)(=O)Nc1ccc(CNC(=O)/C=C/c2ccc(C(F)(F)F)nc2N2CCCC2)cc1F [Example 55, N-(3-Fluoro-4-methanesulfonylamino-benzyl)-3-(2-pyrrolidin-1-yl-6-trifluoromethyl-pyridin-3-yl)-acrylamide] |
| 520 | C#Cc1cc(CNC(=O)/C=C/c2ccc(C(C)(C)C)nc2)cc(F)c1NS(C)(=O)=O [Example 3, 3-(6-tert-Butyl-pyridin-3-yl)-N-(3-ethynyl-5-fluoro-4-methanesulfonylamino-benzyl)-acrylamide] |
| 840 | COCCNc1nc(C(F)(F)F)ccc1/C=C/C(=O)NCc1cc(F)c(NS(C)(=O)=O)c(C#N)c1 [Example 101, N-(3-Cyano-5-fluoro-4-methanesulfonylamino-benzyl)-3-[2-(2-methoxy-ethylamino)-6-trifluoromethyl-pyridin-3-yl]-acrylamide] |
| 320 | CCC/C(=C/C(=O)N[C@H](C)c1cc(F)c(NS(C)(=O)=O)c(F)c1)c1ccc(C(F)(F)F)nc1CCC [Example 277, (Z)-3-(2-Propyl-6-trifluoromethyl-pyridin-3-yl)-hex-2-enoic acid [1-(3,5-difluoro-4-methanesulfonylamino-phenyl)-ethyl]-amide] |
